Experimental data as given in patent US6372279B1, “Sweetener composition” (Ajinomoto Co., Inc., priority 1998, dated 2002).
Blank lines part the entries; values can stand above or below the molecule they belong to.

Assays:
[1] = in terms of weight ratio; cited from earlier work
[2] = Dissolution time in 900 ml water (20° C.), 1-L elution tester, Japanese Pharmacopoeia Paddle method, 100 rpm; assay type: physicochemical
Procedure: A predetermined amount of the sample was introduced into 900 ml water (20° C.) in a 1-L elution tester (the Japanese Pharmacopoeia, Paddle method, 100 rpm) and its dissolution time was measured (end point was visually confirmed).
Specifically, 1 g of the sample taken from each mixture consisting of NM C-type crystals (average particle size (diameter) of about 100 μm) and ACE-K raw powder (average particle size of about 20 μm) at a predetermined ratio (ACE-K content (% by weight)) shown in Table 1 below, was weighed and measured for its dissolution time. For comparison, 1.00 g, 0.90 g, 0.80 g, 0.50 g, 0.10 g, and 0.03 g samples were taken from said NM crystals and their dissolution times were determined in the same manner.
The dissolution times of mixtures of NM and ACE-K were measured in the same manner as in Experimental Example 1 except that NM A-type crystals were used in place of NM C-type crystals.
The sample amount for each mixture and the amount of NM alone (NM A-type crystals) were the same as that in Example 1.
The same NM crystals as those in Experimental Example 1 were used as NM, and the same ACE-K powder (average particle size (diameter) of about 20 μm) as that in Experimental Example 1 was used as ACE-K, and the dissolution times thereof were determined in the same manner as in Experimental Example 1.
That is, 0.5 g each of both of them was weighed (1.0 g in total) and introduced simultaneously without being previously mixed, into the elution tester (separate addition). For reference, the dissolution time of 0.5 g NM C-type crystals alone (Experimental Example 1) is also shown together in the table.

[3] = Quality of sweetness compared to sucrose (early taste, later taste, astringent taste); details: found by the present inventors
Description: It is reported that the sweetness strength or sweetening potency of the synthetic high-potency sweetener, NM, is about 10,000 times that of sucrose in terms of weight ratio (Japanese Patent Kohyou Publication JP-A-8-503206). […] Further, NM has a strong astringent taste. Accordingly, the balance of the quality of sweetness properties for NM is poor when compared to sucrose. Sucrose is generally regarded as the standard for evaluating the properties or characteristics of the quality of sweetness.

SMILES: CC1=CC(=O)[N-]S(=O)(=O)O1.[K+] [ACE-K, Acesulfame K]
Sweetness strength or sweetening potency [1]: about 200 times that of sucrose

Dissolution time ([2]; NM A-type crystals alone, 0.80 g in 900 ml water, 20° C.): 38 min
SMILES: COC(=O)[C@H](Cc1ccccc1)NC(=O)[C@H](CC(=O)O)NCCC(C)(C)C [NM A-type crystals, N-{N-(3,3-dimethylbutyl)-L-α-aspartyl}-L-phenylalanine 1-methyl ester, reference compound]

Dissolution time ([2]; NM C-type crystals alone, 0.80 g in 900 ml water, 20° C.): 58 min
SMILES: COC(=O)[C@H](Cc1ccccc1)NC(=O)[C@H](CC(=O)O)NCCC(C)(C)C [NM C-type crystals, N-{N-(3,3-dimethylbutyl)-L-α-aspartyl}-L-phenylalanine 1-methyl ester]

Dissolution time ([2]; 0.51 g of NM alone (amount of equal sweetness to 1 g mixture containing 50% ACE-K)): about 60 minutes
SMILES: COC(=O)[C@H](Cc1ccccc1)NC(=O)[C@H](CC(=O)O)NCCC(C)(C)C [NM, N-{N-(3,3-dimethylbutyl)-L-α-aspartyl}-L-phenylalanine 1-methyl ester]
Early taste ([3]; compared to sucrose): extremely weak
Later taste ([3]; compared to sucrose): extremely strong
Astringent taste [3]: strong
Sweetness strength or sweetening potency [1]: about 10,000 times that of sucrose
